Assay results from ChEMBL document CHEMBL2074557 (Drug Metab Dispos, 1999).

Biological target: ATP-dependent translocase ABCB1 (Mus musculus, UniProt P21447)
Assay: TP_TRANSPORTER: increase in plasma concentration in PGP(-/-) mouse
Format: functional, organism-based
Details: in vivo

Sequence of ATP-dependent translocase ABCB1 (P21447 whole entry): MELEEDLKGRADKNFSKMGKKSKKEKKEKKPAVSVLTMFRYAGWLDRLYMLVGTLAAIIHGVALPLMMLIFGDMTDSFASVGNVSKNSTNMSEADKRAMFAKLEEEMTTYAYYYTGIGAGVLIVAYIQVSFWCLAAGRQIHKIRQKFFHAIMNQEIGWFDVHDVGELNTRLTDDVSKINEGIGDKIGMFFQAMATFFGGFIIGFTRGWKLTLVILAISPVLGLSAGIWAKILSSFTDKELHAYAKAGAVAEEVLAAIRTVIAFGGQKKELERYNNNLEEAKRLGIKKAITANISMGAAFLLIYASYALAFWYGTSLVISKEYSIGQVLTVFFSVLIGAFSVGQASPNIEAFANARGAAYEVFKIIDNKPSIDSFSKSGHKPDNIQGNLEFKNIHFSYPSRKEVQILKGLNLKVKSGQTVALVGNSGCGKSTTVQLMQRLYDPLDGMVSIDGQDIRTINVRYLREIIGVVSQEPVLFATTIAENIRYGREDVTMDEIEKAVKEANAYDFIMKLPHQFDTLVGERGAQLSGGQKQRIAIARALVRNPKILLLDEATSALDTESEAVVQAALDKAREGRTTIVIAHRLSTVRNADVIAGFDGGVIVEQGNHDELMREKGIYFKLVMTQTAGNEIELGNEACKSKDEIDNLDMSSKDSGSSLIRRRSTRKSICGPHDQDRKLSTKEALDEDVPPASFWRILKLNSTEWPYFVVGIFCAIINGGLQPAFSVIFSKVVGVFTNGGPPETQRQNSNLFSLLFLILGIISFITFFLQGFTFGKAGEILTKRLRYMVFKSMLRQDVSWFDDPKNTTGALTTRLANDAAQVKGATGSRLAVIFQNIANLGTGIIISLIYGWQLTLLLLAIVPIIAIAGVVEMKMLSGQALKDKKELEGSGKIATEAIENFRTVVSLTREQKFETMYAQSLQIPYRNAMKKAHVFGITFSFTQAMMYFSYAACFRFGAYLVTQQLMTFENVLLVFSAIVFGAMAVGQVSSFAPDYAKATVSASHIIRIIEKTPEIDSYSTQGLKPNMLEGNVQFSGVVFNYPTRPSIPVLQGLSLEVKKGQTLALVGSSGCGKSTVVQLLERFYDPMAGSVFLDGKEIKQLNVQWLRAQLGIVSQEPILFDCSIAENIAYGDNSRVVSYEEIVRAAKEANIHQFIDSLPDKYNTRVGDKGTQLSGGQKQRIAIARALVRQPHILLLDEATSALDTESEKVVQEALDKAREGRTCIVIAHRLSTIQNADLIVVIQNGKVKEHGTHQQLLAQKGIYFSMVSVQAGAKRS

With IVERMECTIN the Activity was “substrate [+]”.
